{"source": "patent US20020086027A1", "about": "“Composition and method for enhancing immunological memory response” (priority 1998, published 2002)", "key": {"[1]": {"test_system": "human T cells", "assay": "Primary alloproliferative response of responder PBMCs to irradiated MHC-mismatched stimulator PBMCs ([3H]thymidine incorporation)", "assay_type": "cell-based", "procedure": "In this system, we have used responses to first exposure as an indication of primary responses. When cells stimulated in this fashion are rested in culture and then restimulated with the same stimulator PBMCs, the 'recall' response measured are taken as an indication of immune memory. Proliferation is measured by the incorporation of radioactive tritiated thymidine in dividing cells. PBMCs from HLA-mismatched individuals were separated using density-gradient centrifugation on Ficoll-Paque (Pharmacia, Uppsala, Sweden). Stimulator PBMCs were used in titrated doses after g-irradiation (200 rads). For the primary proliferative alloresponses, stimulator in graded doses were used with 1-3×10^5 responders per well in 200 μl of RPMI-1640 (Life Technologies, Grand Island, N.Y.) fortified with L-glutamine (Life Technologies) and antibiotics, containing 10% heat-inactivated responder autologous serum. Cultures were incubated in a CO2 atmosphere for five days, pulsed with 0.5 uCi of (H^3)-thymidine (New England Nuclear, Boston, Mass.) for the last 8-12 hours of the assay and harvested onto glass fiber filters for counting cell-incorporated thymidine (Betaplate; Wallac, Finland). results are expressed as mean cpm±SE for triplicate cultures. Dibutyryl cyclic AMP (dbcAMP), pentoxifylline (POX), aphidicolin (all from Sigma Chemical Co., St Louis, Mo.) and recombinant IL-2 (Boehringer Manheim Corp., Manheim Germany) were added singly or together to the culture in various doses as indicated during priming and in primary alloresponse assays. […] Sigma Chemical Co.) at room temperature for 20 minutes, washed extensively and used. PBMCs from MHC-mismatched donors were used as responder-stimulator pairs. Stimulator cells were used after γ-irradiation (200 rad) at various concentrations, as shown. Proliferation assays were set up as parallel cultures and were pulsed and harvested as below on different days when necessary for the analyses of the kinetics of the response. Where appropriate, cyclosporin A (CsA, Sandoz, Milan, Italy), aphidicolin (Aph, Sigma Chemical Co., and/or pentoxifylline ([…], Sigma Chemical Co.) Were added at the concentrations indicated, or PFA-fixed PBMCs were used. The plated were pulsed with 0.5 to 1 μCi of (^3H)thymidine ([^3H]TdR. Amersham, Little Chalfont, U.K.) During the last 12 to 16 h of the assay (4 days for a recall assay and 6 days for a primary assay, unless indicated otherwise). [^3H] TdR incorporation was measured by harvesting the cultures on glass-fibers and counting in a scintillation counter (Betaplate: LKB-Pharmacia. Uppsala, […]). The results are expressed as mean cpm±SE of triplicate cultures."}, "[2]": {"test_system": "CD25+ CD4 T cells", "assay": "Flow cytometry of CD25 and Fas (CD95) on primed cells", "assay_type": "cell-based, human", "details": "aphidicolin 1 ug/ml present during two-day rest period", "procedure": "For analysis of cell surface markers, primed cell populations separated on Ficoll-Paque gradients were used. […] Briefly, 1-3×10^5 cells per well were stained with primary antibodies at 4° C., followed by appropriately labeled secondary reagents if required. Samples were analyzed using a Bryte flow cytometer (bio-Rad, Hemel Hampstead, UK). Antibodies to the T cell markers CD3 (OKT3), CD4 (OKT4), and to the activation markers CD25 and Fas (CD95) were used for staining. To detect apoptosis using propidium iodide (PI, Sigma Chemical Co.), antibody-stained cells were fixed and permeabilized with 70% ethanol, washed, and PI […] added just before cytometric analysis. Data were analyzed using FlowJo software (Treestar, San Jose, Calif.).\nThe phenotype of CD4 T cells activated during priming in vitro was examined next using various markers associated with T cell activation. Antibodies against CD25 (IL-2Ra), CD26, CD45RO, CD69 and gp240 were used, but except for CD25, none of the other markers gave consistent and reliable results (data not shown). CD25 expression on CD4 T cells in the responder populations was examined in a two-color flow cytometric analysis at two separate time points,—at the end of six days of priming and after two further rest days in culture after washing and resuspension in resh medium without any stimuli. Most CD25-expressing cells in the primed cultures were CD4 T cells. […] The frequency of CD25 expression increased in the PBMC-primed responders (FIG. 17B) and this percentage was lower if POX (100 μg/ml) was present during priming (FIG. 17C). […] Similar data were observed if dbcAMP was present during priming (data not shown). It can be seen that the proportion of CD25* cells was reproducibly lower if POX was present during priming with allo-PBMCs. However, after 48 hours of rest in culture, the frequency of CD25* cells declined in the populations primed in the absence of POX, while it went up in the group primed under POX cover."}, "[3]": {"test_system": "human T cells", "assay": "Secondary (recall) alloproliferative response of T cells primed in vitro", "assay_type": "cell-based", "procedure": "In this system, we have used responses to first exposure as an indication of primary responses. When cells stimulated in this fashion are rested in culture and then restimulated with the same stimulator PBMCs, the 'recall' response measured are taken as an indication of immune memory. Proliferation is measured by the incorporation of radioactive tritiated thymidine in dividing cells. For priming, responder and stimulator cells mixed in 2-5 ml cultures in a ratio of 1:1-3:1. After five days of incubation, the cells were harvested, counted and viable cells used as primed responders with g-irradiated allostimulators in secondary alloproliferation assays, which were pulsed with (H^3)-thymidine after four days for estimating cell proliferation. For flow cytometric analysis, cells were separated from debris by Ficoll-Paque gradient centrifugation before staining. […] Sigma Chemical Co.) at room temperature for 20 minutes, washed extensively and used. For priming in vitro, responder PBMCs were incubated for 72 or 144 h at a ratio of either 1:1 or 2:1 respectively, with stimulator PBMCs. Where appropriate, CsA. Aph. and/or […] were added at the concentrations indicated, of PFA-fixed PBMCs were used instead."}, "[4]": {"test_system": "allo-specific precursor T cells", "assay": "Limiting dilution analysis of clonal responder frequency and burst size", "assay_type": "cell-based, human", "details": "drug present during priming (POX 100 ug/ml)", "excerpt": "Limiting dilution analyses were used to calculate the number of transplantation antigen-specific memory T cells in cultures primed in the presence or absence of POX. Multiple replicate wells of titrated numbers of primed responders were restimulated. the numbers of wells showing proliferative responses at each responder dose were used to calculate the frequency of responding memory t cells in the primed populations. estimates of the extent of proliferation in wells effectively containing single responder cells served as a measure of clonal burst size. […] To determine the frequence of all-specific precursor cells in the various responder populations, titrating numbers (from 10,000 to 200 per well) of variously primed cells were added to a constant number (1×10^5 per well) of g-irradiated stimulator PBMCs. Of the 48 wells plated per responder dose, those wells showing a response at least twice that of the background value were scored positive. The responder frequency was calculated by taking the number of negative wells into account. The response was considered clonal at the responder cell number where the proportion of positively responding wells was less than 37%. At responder cell concentrations showing clonal frequencies, the average cpm values of responding (versus non-responding) wells were used as an estimate of the average clonal burst size of single responding T cells."}}}
{"compound": "C[C@@]1(CO)[C@H](O)CC[C@@]2(C)[C@H]1CC[C@H]1C[C@@H]3C[C@@]12CC[C@]3(O)CO", "note": "[Aph, aphidicolin]", "values": [{"measurement": "T cell proliferation in first response", "setting": "[1]; 1 μg/ml Aph", "value": "inhibited substantially"}, {"measurement": "T cell proliferation in first response", "setting": "[1]; 3 μg/ml Aph", "value": "completely undetectable"}, {"measurement": "kinetics of primary response", "setting": "[1]; days 4-10, drugs present throughout", "value": "declines equivalently"}, {"measurement": "primary response after drug removal", "setting": "[1]; drugs removed on day 6, pulsed days 8 and 10", "value": "no increase"}, {"measurement": "increase in frequency of CD25+ cells in responders exposed to POX during priming", "setting": "[2]", "value": "does not abrogate"}, {"measurement": "responses of unprimed PBMCs incubated with Aph", "setting": "[3]; no stimulators", "value": "unaltered"}, {"measurement": "recall response", "setting": "[3]; primed with 1 μg/ml Aph vs primed in absence of Aph", "value": "comparable"}, {"measurement": "recall response", "setting": "[3]; primed with 3 μg/ml Aph", "value": "significant enhancement"}]}
{"compound": "CCCC(=O)Nc1ncnc2c1ncn2[C@@H]1O[C@@H]2COP(=O)(O)O[C@H]2[C@H]1OC(=O)CCC", "note": "[dbcAMP, Dibutyryl cyclic AMP]", "values": [{"measurement": "frequency of alloreactive responder (memory) T cells", "setting": "[4]", "value": "significantly enhances"}, {"measurement": "primary proliferative response", "setting": "[1]; 1 mM dbcAMP", "value": "inhibits"}, {"measurement": "primary proliferative response", "setting": "[1]; 10 mM dbcAMP", "value": "No effect"}, {"measurement": "primary proliferative response", "setting": "[1]; 100 mM dbcAMP", "value": "does inhibit"}, {"measurement": "recall response", "setting": "[3]; priming in presence of 10 mM dbcAMP", "value": "No effect"}, {"measurement": "secondary response", "setting": "[3]; priming in presence of 100 mM dbcAMP", "value": "significant enhancement"}]}
{"compound": "paraformaldehyde [PFA]", "values": [{"measurement": "primary alloproliferative response to PFA-fixed APCs", "setting": "[1]; 0.0003% PFA", "value": "significant lowering"}, {"measurement": "recall response capability induced by PFA-fixed APCs", "setting": "[3]; 0.003% PFA, vs unfixed APCs", "value": "comparable with or greater than"}, {"measurement": "recall response of cells primed with PFA-fixed APCs", "setting": "[3]; 0.3% PFA, vs unprimed cells", "value": "distinctly lower"}]}
